Results published in patent publication US20250320252A1 (The Scripps Research Institute, priority 2021, published 2025).
Where two headings read alike, the source gives them in different places. Numbered stars: 1 amine (or outer) side, 2 acyl side, 3 side chain; on linkers, the order of the positions; unused ones are H or OH. Bridge positions count the residues as written; N and C are the ends. Square brackets hold non-standard residues; d marks the D form. Peptide text beside a SMILES is read from it. X2 = O=C(O)CCCCCCCCCCCCCCCCCCC(=O)N[C@@H](CCCCNC(=O)CCOCCOCCNC(=O)CCOCCOCCNC(=O)CCC(=O)N(CCNC(=O)C[*:1])CCNC(=O)C[*:2])C(=O)O; X1 = O=C(O)CCCCCCCCCCCCCCCCC(=O)N[C@@H](CCCCNC(=O)CCOCCOCCNC(=O)CCOCCOCCNC(=O)CCC(=O)N(CCNC(=O)C[*:1])CCNC(=O)C[*:2])C(=O)O; Aib = CC(C)(N)C(=O)O

Assays:
human GLP-1R = target: T1, human GLP-1R (Homo sapiens, UniProt P43220); experiment: In vitro receptor activation reporter assay (CRE-Luc), HEK293-GLP-1R-CRE; format: cell-based
T1 construct: expressed in transfected cells
T1 sequence (P43220 24-463): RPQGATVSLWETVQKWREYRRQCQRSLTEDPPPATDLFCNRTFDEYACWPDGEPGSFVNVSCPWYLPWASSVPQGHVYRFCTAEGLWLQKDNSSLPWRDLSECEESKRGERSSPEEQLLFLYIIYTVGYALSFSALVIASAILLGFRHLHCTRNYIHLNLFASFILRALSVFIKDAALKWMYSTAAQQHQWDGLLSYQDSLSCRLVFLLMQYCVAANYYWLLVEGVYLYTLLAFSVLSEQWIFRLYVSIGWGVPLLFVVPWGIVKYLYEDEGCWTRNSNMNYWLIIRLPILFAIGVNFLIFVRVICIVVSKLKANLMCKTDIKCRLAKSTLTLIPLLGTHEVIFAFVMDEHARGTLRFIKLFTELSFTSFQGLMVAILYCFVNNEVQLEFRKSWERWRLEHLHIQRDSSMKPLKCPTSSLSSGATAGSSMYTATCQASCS
Description: (§1) The EC50 of each peptide was determined using GraphPad Prism 6 software (GraphPad, San Diego, CA).
HEK293 cells were infected with lentivirus encoding firefly luciferase gene under the control of cAMP responsive element (CRE) promoter (Qiagen, The Netherlands) and then were selected using 1 g/mL puromycin (Life Technologies, Carlsbad) for 1 week. The surviving cells (referred to as CRE-HEK293) were expanded and then transfected with a G418 selective mammalian expression plasmid encoding human GLP-1R. In brief, GLP-1R plasmid was transfected into CRE-HEK293 cells using Lipofectamine 2000 and selected with 400 g/mL Geneticin (Life Technologies, Carlsbad, CA). Single colony stable cell line overexpressing CRE-luciferase and GLP1R was then established for in vitro activity assay.

human GIPR = target: T2, human GIPR (Homo sapiens, UniProt P48546); experiment: In vitro receptor activation reporter assay (CRE-Luc), HEK293-GIPR-CRE; format: cell-based
T2 construct: expressed in transfected cells
T2 sequence (P48546 22-466): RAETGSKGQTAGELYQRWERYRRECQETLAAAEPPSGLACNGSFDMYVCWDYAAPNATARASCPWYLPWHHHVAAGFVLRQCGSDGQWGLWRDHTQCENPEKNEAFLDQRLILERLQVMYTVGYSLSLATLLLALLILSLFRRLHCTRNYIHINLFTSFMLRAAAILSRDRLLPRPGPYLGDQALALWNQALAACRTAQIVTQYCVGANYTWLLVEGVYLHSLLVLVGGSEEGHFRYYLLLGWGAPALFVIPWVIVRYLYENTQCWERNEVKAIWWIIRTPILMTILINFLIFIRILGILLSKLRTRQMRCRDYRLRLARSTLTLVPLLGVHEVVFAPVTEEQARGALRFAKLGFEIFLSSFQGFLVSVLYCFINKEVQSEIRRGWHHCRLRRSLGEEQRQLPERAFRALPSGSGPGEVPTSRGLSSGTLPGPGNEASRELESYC
Excerpt: HEK293 cells were infected with lentivirus encoding firefly luciferase gene under the control of cAMP responsive element (CRE) promoter (Qiagen, The Netherlands) and then were selected using 1 g mL^−1 puromycin (Life Technologies, Carlsbad) for 1 week. The surviving cells (referred to as CRE-HEK293) were expanded and then transfected with a G418 selective mammalian expression plasmid encoding human GLP-1R or GIPR. In brief, GLP-1R or GIPR plasmid was transfected into CRE-HEK293 cells using Lipofectamine 2000 and selected with 400 g mL^−1 Geneticin (Life Technologies, Carlsbad, CA). Single colony stable cell line overexpressing CRE-luciferase and GLP-1R or GIPR (HEK293-GLP-1R-CRE or HEK293-GIPR-CRE) was then established for in vitro activity assay.
as §1

[1] = Table 8, read-out: EC50 [nM] GLP1R
[2] = Table 8, read-out: EC50 [nM] GIPR

SMILES: CC[C@H](C)[C@H](NC(=O)[C@H](CC(C)C)NC(=O)[C@H](Cc1c[nH]c2ccccc12)NC(=O)[C@H](CC(N)=O)NC(=O)[C@@H](NC(=O)[C@H](Cc1ccccc1)NC(=O)[C@@H]1CSCC(=O)NCCN(C(=O)CCC(=O)NCCOCCOCCC(=O)NCCOCCOCCC(=O)NCCCC[C@H](NC(=O)CCCCCCCCCCCCCCCCC(=O)O)C(=O)O)CCNC(=O)CSC[C@H](NC(=O)[C@H](Cc2ccc(O)cc2)NC(=O)[C@@H](NC(=O)[C@H](CO)NC(=O)[C@@H](NC(=O)[C@H](CC(=O)O)NC(=O)[C@H](CO)NC(=O)[C@@H](NC(=O)[C@H](Cc2ccccc2)NC(=O)[C@@H](NC(=O)CNC(=O)[C@H](CCC(=O)O)NC(=O)C(C)(C)NC(=O)[C@@H](N)Cc2ccc(O)cc2)[C@@H](C)O)[C@@H](C)CC)C(C)C)[C@@H](C)CC)C(=O)N[C@@H](CC(=O)O)C(=O)N[C@@H](CCCCN)C(=O)N[C@@H](CCC(N)=O)C(=O)N[C@@H](C)C(=O)N[C@@H](C)C(=O)NC(C)(C)C(=O)N1)C(C)C)C(=O)N[C@@H](C)C(=O)NCC(=O)NCC(=O)N1CCC[C@H]1C(=O)N[C@@H](CO)C(=O)N[C@@H](CO)C(=O)NCC(=O)N[C@@H](C)C(=O)N1CCC[C@H]1C(=O)N1CCC[C@H]1C(=O)N1CCC[C@H]1C(=O)N[C@@H](CO)C(N)=O [7I, 10V, 27I, C(14-21) - L5A, YAibEGT-FISDV-SIYXD-KQAAAib-XFVNW-LIAGG-PSSGA-PPPS-NH2 (where each X is C)] (H-Y[Aib]EGTFISDVSIYCDKQAA[Aib]CFVNWLIAGGPSSGAPPPS-NH2; linker 14-21 via X1)
- EC50 (human GLP-1R; [1]): 83.9 nM
- EC50 (human GIPR; [2]): 12.5 nM

SMILES: CC[C@H](C)[C@H](NC(=O)[C@H](CC(C)C)NC(=O)[C@H](Cc1c[nH]c2ccccc12)NC(=O)[C@H](CC(N)=O)NC(=O)[C@@H](NC(=O)[C@H](Cc1ccccc1)NC(=O)[C@@H]1CSCC(=O)NCCN(C(=O)CCC(=O)NCCOCCOCCC(=O)NCCOCCOCCC(=O)NCCCC[C@H](NC(=O)CCCCCCCCCCCCCCCCC(=O)O)C(=O)O)CCNC(=O)CSC[C@H](NC(=O)[C@H](Cc2ccc(O)cc2)NC(=O)[C@@H](NC(=O)[C@H](CO)NC(=O)[C@H](Cc2ccc(O)cc2)NC(=O)[C@H](CC(=O)O)NC(=O)[C@H](CO)NC(=O)[C@@H](NC(=O)[C@H](Cc2ccccc2)NC(=O)[C@@H](NC(=O)CNC(=O)[C@H](CCC(=O)O)NC(=O)C(C)(C)NC(=O)[C@@H](N)Cc2ccc(O)cc2)[C@@H](C)O)[C@@H](C)O)[C@@H](C)CC)C(=O)N[C@@H](CC(=O)O)C(=O)N[C@@H](CCCCN)C(=O)N[C@@H](CCC(N)=O)C(=O)N[C@@H](C)C(=O)N[C@@H](C)C(=O)NC(C)(C)C(=O)N1)C(C)C)C(=O)N[C@@H](C)C(=O)NCC(=O)NCC(=O)N1CCC[C@H]1C(=O)N[C@@H](CO)C(=O)N[C@@H](CO)C(=O)NCC(=O)N[C@@H](C)C(=O)N1CCC[C@H]1C(=O)N1CCC[C@H]1C(=O)N1CCC[C@H]1C(=O)N[C@@H](CO)C(N)=O [27I, C(14-21) - L5A, YAibEGT-FTSDY-SIYXD-KQAAAib-XFVNW-LIAGG-PSSGA-PPPS-NH2 (where each X is C)]
- EC50 (human GLP-1R; [1]): 0.04 nM
- EC50 (human GIPR; [2]): 0.03 nM

SMILES: CC[C@H](C)[C@H](NC(=O)[C@H](CO)NC(=O)[C@H](Cc1ccc(O)cc1)NC(=O)[C@H](CC(=O)O)NC(=O)[C@H](CO)NC(=O)[C@@H](NC(=O)[C@H](Cc1ccccc1)NC(=O)[C@@H](NC(=O)CNC(=O)[C@H](CCC(=O)O)NC(=O)C(C)(C)NC(=O)[C@@H](N)Cc1ccc(O)cc1)[C@@H](C)O)[C@@H](C)O)C(=O)N[C@@H](Cc1ccc(O)cc1)C(=O)N[C@H]1CSCC(=O)NCCN(C(=O)CCC(=O)NCCOCCOCCC(=O)NCCOCCOCCC(=O)NCCCC[C@H](NC(=O)CCCCCCCCCCCCCCCCCCC(=O)O)C(=O)O)CCNC(=O)CSC[C@@H](C(=O)N[C@@H](Cc2ccccc2)C(=O)N[C@H](C(=O)N[C@@H](CC(N)=O)C(=O)N[C@@H](Cc2c[nH]c3ccccc23)C(=O)N[C@@H](CC(C)C)C(=O)N[C@@H](CC(C)C)C(=O)N[C@@H](C)C(=O)NCC(=O)NCC(=O)N2CCC[C@H]2C(=O)N[C@@H](CO)C(=O)N[C@@H](CO)C(=O)NCC(=O)N[C@@H](C)C(=O)N2CCC[C@H]2C(=O)N2CCC[C@H]2C(=O)N2CCC[C@H]2C(=O)N[C@@H](CO)C(N)=O)C(C)C)NC(=O)C(C)(C)NC(=O)[C@H](C)NC(=O)[C@H](C)NC(=O)[C@H](CCC(N)=O)NC(=O)[C@H](CCCCN)NC(=O)[C@H](CC(=O)O)NC1=O [C(14-21) - C20L5A, YAibEGT-FTSDY-SIYXD-KQAAAib-XFVNW-LLAGG-PSSGA-PPPS-NH2 (where each X is C)]
- EC50 (human GLP-1R; [1]): 0.2 nM
- EC50 (human GIPR; [2]): 0.05 nM
- EC50 (human GIPR; unnumbered table (Table 10), average of runs, read-out: GIPR (nM) [EC50] average): 0.05 nM
- EC50 (human GIPR; unnumbered table (Table 10), run 02/19, read-out: GIPR (nM) [EC50] 02/19): 0.07 nM
- EC50 (human GIPR; unnumbered table (Table 10), run 03/25, read-out: GIPR (nM) [EC50] 03/25): 0.04 nM
- EC50 (human GIPR; unnumbered table (Table 10), run 03/26, read-out: GIPR (nM) [EC50] 03/26): 0.04 nM

SMILES: CC[C@H](C)[C@H](NC(=O)[C@H](CC(C)C)NC(=O)[C@H](Cc1c[nH]c2ccccc12)NC(=O)[C@H](CC(N)=O)NC(=O)[C@@H](NC(=O)[C@H](Cc1ccccc1)NC(=O)[C@@H]1CSCC(=O)NCCN(C(=O)CCC(=O)NCCOCCOCCC(=O)NCCOCCOCCC(=O)NCCCC[C@H](NC(=O)CCCCCCCCCCCCCCCCCCC(=O)O)C(=O)O)CCNC(=O)CSC[C@H](NC(=O)[C@H](Cc2ccc(O)cc2)NC(=O)[C@@H](NC(=O)[C@H](CO)NC(=O)[C@H](Cc2ccc(O)cc2)NC(=O)[C@H](CC(=O)O)NC(=O)[C@H](CO)NC(=O)[C@@H](NC(=O)[C@H](Cc2ccc(O)cc2)NC(=O)[C@@H](NC(=O)CNC(=O)[C@H](CCC(=O)O)NC(=O)C(C)(C)NC(=O)[C@@H](N)Cc2ccc(O)cc2)[C@@H](C)O)[C@@H](C)O)[C@@H](C)CC)C(=O)N[C@@H](CC(=O)O)C(=O)N[C@@H](CCCCN)C(=O)N[C@@H](CCC(N)=O)C(=O)N[C@@H](C)C(=O)N[C@@H](C)C(=O)NC(C)(C)C(=O)N1)C(C)C)C(=O)N[C@@H](C)C(=O)NCC(=O)NCC(=O)N1CCC[C@H]1C(=O)N[C@@H](CO)C(=O)N[C@@H](CO)C(=O)NCC(=O)N[C@@H](C)C(=O)N1CCC[C@H]1C(=O)N1CCC[C@H]1C(=O)N1CCC[C@H]1C(=O)N[C@@H](CO)C(N)=O [6Y, 271, C(14-21) - C20L5A, YAibEGT-YTSDY-SIYXD-KQAAAib-XFVNW-LIAGG-PSSGA-PPPS-NH2 (where each X is C)] (H-Y[Aib]EGTYTSDYSIYCDKQAA[Aib]CFVNWLIAGGPSSGAPPPS-NH2; linker 14-21 via X2)
- EC50 (human GLP-1R; GLP1R (nM) [EC50] 02/19, unnumbered table (Table 10), run 02/19): 0.04 nM
- EC50 (human GLP-1R; GLP1R (nM) [EC50] 3/25, unnumbered table (Table 10), run 3/25): 0.07 nM
- EC50 (human GLP-1R; GLP1R (nM) [EC50] 03/26, unnumbered table (Table 10), run 03/26): 0.07 nM
- EC50 (human GLP-1R; GLP1R (nM) [EC50] average, unnumbered table (Table 10), average of runs): 0.06 nM
- EC50 (human GIPR; GIPR (nM) [EC50] 02/19, unnumbered table (Table 10), run 02/19): 0.5 nM
